Data reported in publication PMC7180739, “Aggregation and Molecular Properties of β-Glucosidase Isoform II in Chayote (Sechium edule)” (Molecules, 2020).

Tested on: T1, β-glucosidase isoform II (β-glucosidase II, Sebg)
T1 construct: native, purified from fruit epicarp and mesocarp
Assay: p-nitrophenol release, nonlinear regression
Format: biochemical, Sechium edule
Details: 40 °C, 0.2 M sodium citrate pH 5.0 (pH 5.5)
Source text: p-nitrophenol release, nonlinear regression on β-glucosidase isoform II (β-glucosidase II, Sebg)

Row | Km [mM] | Compound
1 | 5.72 ± 0.45 | O=[N+]([O-])c1ccc(O[C@@H]2O[C@H](CO)[C@H](O)[C@H](O)[C@H]2O)cc1 [pNPGal, p-Nitrophenyl-β-D-galactopyranoside]
2 | 4.59 ± 0.49 | O=[N+]([O-])c1ccc(O[C@@H]2O[C@H](CO)[C@@H](O)[C@H](O)[C@H]2O)cc1 [pNPGlc, p-Nitrophenyl-β-D-glucopyranoside]
3 | 16.1 ± 2.62 | C[C@H]1O[C@@H](Oc2ccc([N+](=O)[O-])cc2)[C@H](O)[C@@H](O)[C@H]1O [pNPFuc, p-Nitrophenyl-β-D-fucopyranoside]
